In ChEMBL document CHEMBL1201862, “PubChem BioAssay data set” (2004):
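Where inhibition never reached the appropriate level, the endpoint shown equals the highest concentration tested. Otherwise, values were interpolated linearly from a five-concentration, 48-hour dose response in 96-well plates. Here, GI50 denotes the concentration required for 50% inhibition of growth.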 Calls of active or inactive are those of the source. Cut-off read from the data, not from the text of the source: active = GI50 up to about 1.1 µM and inactive = higher.

Key:
Test in all cases: DTP human tumour cell line panel, 48 h
[1] = test system: RPMI-8226
[2] = test system: HT-29
[3] = test system: UACC-257
[4] = test system: NCI-H23
[5] = test system: SW-620
[6] = test system: UO-31
[7] = test system: HCT-116
[8] = test system: NCI-H226
[9] = test system: SF-539
[10] = test system: OVCAR-8
[11] = test system: HOP-92
[12] = test system: SF-268
[13] = test system: CAKI-1
[14] = test system: SNB-19
[15] = test system: HL-60
[16] = test system: UACC-62
[17] = test system: A498
[18] = test system: HOP-62
[19] = test system: U-251
[20] = test system: OVCAR-3

Row | Compound | GI50 [1] | GI50 [2] | GI50 [3] | GI50 [4] | GI50 [5] | GI50 [6] | GI50 [7] | GI50 [8] | GI50 [9] | GI50 [10] | GI50 [11] | GI50 [12] | GI50 [13] | GI50 [14] | GI50 [15] | GI50 [16] | GI50 [17] | GI50 [18] | GI50 [19] | GI50 [20]
1 | Cc1ccc(S(=O)(=O)NNC(=O)Nc2ccc(Cl)cc2)cc1 | > 100 µM (inactive) | > 100 µM (inactive) | > 100 µM (inactive) | > 100 µM (inactive) | > 100 µM (inactive) | > 100 µM (inactive) | > 100 µM (inactive) | > 100 µM (inactive) | 54 µM (inactive) | > 100 µM (inactive) | > 100 µM (inactive) | > 100 µM (inactive) | > 100 µM (inactive) | > 100 µM (inactive) | > 100 µM (inactive) | > 100 µM (inactive) | > 100 µM (inactive) | > 100 µM (inactive) | > 100 µM (inactive) | 
2 | CN(CC(=O)O)CC(=O)O | > 100 µM (inactive) | > 100 µM (inactive) | > 100 µM (inactive) | > 100 µM (inactive) | > 100 µM (inactive) | > 100 µM (inactive) | > 100 µM (inactive) | > 100 µM (inactive) | > 100 µM (inactive) | > 100 µM (inactive) | > 100 µM (inactive) | > 100 µM (inactive) | > 100 µM (inactive) | > 100 µM (inactive) | > 100 µM (inactive) | > 100 µM (inactive) | > 100 µM (inactive) | > 100 µM (inactive) | > 100 µM (inactive) | > 100 µM (inactive)
3 | Nc1nc(Cl)nc2c1ncn2C1CC(O)C(CO)O1 (centres undefined) | 54.2 µM (inactive) | 19.3 µM (inactive) | 1.76 µM (inactive) | 0.592 µM (active) | 23 µM (inactive) | 0.701 µM (active) | 4.04 µM (inactive) | 16.7 µM (inactive) | 20.3 µM (inactive) | 0.097 µM (active) | 1.3 µM (inactive) | 26.4 µM (inactive) | 0.665 µM (active) | 1.47 µM (inactive) | 0.0601 µM (active) | 0.463 µM (active) | 2.95 µM (inactive) | 0.33 µM (active) | 10.4 µM (inactive) | 25.8 µM (inactive)
4 | O=C1CCCN1CCC/N=c1/cc2n(-c3ccc(Cl)cc3)c3ccccc3nc-2cc1Nc1ccc(Cl)cc1 | 5.98 µM (inactive) | 2.13 µM (inactive) | 11.9 µM (inactive) | 8.26 µM (inactive) | 14.5 µM (inactive) | 6.73 µM (inactive) | 7.26 µM (inactive) | 15.7 µM (inactive) | 12.7 µM (inactive) | 14.6 µM (inactive) | 8.17 µM (inactive) | 38.5 µM (inactive) | 27 µM (inactive) | 34.7 µM (inactive) | 3.47 µM (inactive) | 11.5 µM (inactive) | 19.5 µM (inactive) | 12.9 µM (inactive) | 22.1 µM (inactive) | 2.09 µM (inactive)
5 | O=c1ccc2ccc(CBr)cc2o1 | 1.61 µM (inactive) | 2.48 µM (inactive) | 11.7 µM (inactive) | 2.92 µM (inactive) | 1.72 µM (inactive) |  | 1.88 µM (inactive) | 10.7 µM (inactive) | 3.97 µM (inactive) | 2.05 µM (inactive) | 1.68 µM (inactive) |  | 1.55 µM (inactive) | 12.4 µM (inactive) | 1.76 µM (inactive) | 10.8 µM (inactive) | 16 µM (inactive) | 17 µM (inactive) | 1.81 µM (inactive) | 
6 | CC(=O)c1c(-c2ccccc2)c(-c2ccc(OCCN(C)C)cc2)n2ccccc12 | 20.8 µM (inactive) | 3.44 µM (inactive) | 15.5 µM (inactive) | 18.7 µM (inactive) | 17.9 µM (inactive) | 16.7 µM (inactive) | 13.3 µM (inactive) | 15.2 µM (inactive) | 13.9 µM (inactive) | 14.9 µM (inactive) | 10.1 µM (inactive) | 16.8 µM (inactive) | 18.5 µM (inactive) | 19.3 µM (inactive) | 16.3 µM (inactive) | 15.7 µM (inactive) | 19.2 µM (inactive) |  | 17 µM (inactive) | 16.6 µM (inactive)
7 | COc1ccc(NC(C)=O)cc1N1C(=O)/C(=C\c2ccccc2)SC1c1cc(OC)c(OC)c(OC)c1 (centres undefined) | 34 µM (inactive) | 32.4 µM (inactive) | > 100 µM (inactive) | 36.5 µM (inactive) | 40.4 µM (inactive) | 33.7 µM (inactive) | 14.4 µM (inactive) | 24 µM (inactive) | 22.6 µM (inactive) | 23.1 µM (inactive) | 14.6 µM (inactive) | 17.7 µM (inactive) | 34.7 µM (inactive) | 34 µM (inactive) | 26.8 µM (inactive) | 30.4 µM (inactive) | 60 µM (inactive) | 39.2 µM (inactive) | 32.5 µM (inactive) | 29.4 µM (inactive)
8 | CC(C)(C)c1ccc2c(c1)OP1(Oc3c(Cl)cc(Cl)c4cccnc34)(O2)Oc2ccc(C(C)(C)C)cc2O1 | 3.59 µM (inactive) | 5.2 µM (inactive) | 4.03 µM (inactive) | 6.38 µM (inactive) | 6.43 µM (inactive) | 5.08 µM (inactive) | 5.22 µM (inactive) | 8.97 µM (inactive) | 7.78 µM (inactive) | 5.31 µM (inactive) | 2.4 µM (inactive) | 7.16 µM (inactive) | 3.78 µM (inactive) | 7.53 µM (inactive) | 2.65 µM (inactive) | 5.37 µM (inactive) | 14.1 µM (inactive) | 5.01 µM (inactive) | 4.63 µM (inactive) | 4.78 µM (inactive)
9 | COc1cc2c(cc1O)N=C[C@@H]1CC[C@@H](O)N1C2=O.COc1cc2c(cc1O)N=C[C@@H]1CC[C@H](O)N1C2=O | 0.527 µM (active) | 2.17 µM (inactive) | 1.6 µM (inactive) | 0.916 µM (active) | 0.652 µM (active) | 0.579 µM (active) | 1.32 µM (inactive) | 0.525 µM (active) | 0.726 µM (active) | 1.05 µM (active) | 0.752 µM (active) | 0.735 µM (active) | 0.607 µM (active) | 1.4 µM (inactive) | 0.897 µM (active) | 0.627 µM (active) | 0.43 µM (active) | 0.631 µM (active) | 0.635 µM (active) | 0.561 µM (active)
10 | O/N=C\c1cc(O)c(O)c(/C=N/O)c1 | 11.8 µM (inactive) | 59.3 µM (inactive) | > 100 µM (inactive) | 71 µM (inactive) | 39.9 µM (inactive) | 16 µM (inactive) | 33.8 µM (inactive) | 32.9 µM (inactive) | 34.4 µM (inactive) | 29 µM (inactive) | 49.9 µM (inactive) | 15.2 µM (inactive) | 28.6 µM (inactive) | 89.5 µM (inactive) | 14.1 µM (inactive) | 38.5 µM (inactive) | 69.3 µM (inactive) | 29.4 µM (inactive) | 39 µM (inactive) | 20.6 µM (inactive)
11 | O=S(=O)(N/N=C/c1ccc(Cl)cc1Cl)c1ccccc1 | 84.7 µM (inactive) | 80.2 µM (inactive) | > 100 µM (inactive) | 69.7 µM (inactive) | 78.9 µM (inactive) | > 100 µM (inactive) | 49 µM (inactive) | 99.3 µM (inactive) | 77.1 µM (inactive) | 71.4 µM (inactive) | 34.8 µM (inactive) | 63.1 µM (inactive) | 59.4 µM (inactive) |  | 19.5 µM (inactive) | > 100 µM (inactive) | > 100 µM (inactive) | > 100 µM (inactive) | 91.2 µM (inactive) | 91.4 µM (inactive)
12 | CC(=O)C(CN1CCCCC1)C(c1ccccc1)c1c(O)c2ccccc2oc1=O (centres undefined) | > 100 µM (inactive) | > 100 µM (inactive) | > 100 µM (inactive) | > 100 µM (inactive) | > 100 µM (inactive) | > 100 µM (inactive) | > 100 µM (inactive) | > 100 µM (inactive) | > 100 µM (inactive) | > 100 µM (inactive) | 41 µM (inactive) | > 100 µM (inactive) | > 100 µM (inactive) | > 100 µM (inactive) | 59.4 µM (inactive) | > 100 µM (inactive) | > 100 µM (inactive) | > 100 µM (inactive) | > 100 µM (inactive) | > 100 µM (inactive)
13 | COc1cc(CCc2ccncc2)cc(OC)c1OC | > 100 µM (inactive) | > 100 µM (inactive) | > 100 µM (inactive) | > 100 µM (inactive) | > 100 µM (inactive) | > 100 µM (inactive) | > 100 µM (inactive) | > 100 µM (inactive) | > 100 µM (inactive) | > 100 µM (inactive) | > 100 µM (inactive) | > 100 µM (inactive) | > 100 µM (inactive) | > 100 µM (inactive) | > 100 µM (inactive) | > 100 µM (inactive) | > 100 µM (inactive) | > 100 µM (inactive) | > 100 µM (inactive) | > 100 µM (inactive)
14 | O=c1c(C(c2ccc(OCc3ccccc3)cc2)c2c(O)oc3ccccc3c2=O)c(O)oc2ccccc12 | 43.1 µM (inactive) | 33 µM (inactive) | 78.9 µM (inactive) | 35.7 µM (inactive) | 57.4 µM (inactive) | 19 µM (inactive) | 36.8 µM (inactive) | 30.7 µM (inactive) | 39.6 µM (inactive) | 33.4 µM (inactive) | 36.2 µM (inactive) | 29.4 µM (inactive) | 27.2 µM (inactive) | 40.6 µM (inactive) | 32.8 µM (inactive) | 37.5 µM (inactive) | 83.2 µM (inactive) | 47.5 µM (inactive) | 39.5 µM (inactive) | 63.8 µM (inactive)
